Test system: adults with plaque psoriasis
Test: Long-term open-label extension study (PSOARING 3): Physician Global Assessment (PGA), treatment episodes, treatment success, remittive effect
Format: in vivo, human
Settings: for Proportion of subjects who never achieved PGA = 0 or 1 throughout the study / Proportion of subjects who achieved PGA = 0 or 1 at least 1 time during the study: entering with PGA ≥ 2
Method: This extension study consisted of up to 40 weeks of treatment and a 4 week, safety follow up period.
At the completion of the Week 12 visit of the DB, pivotal Phase 3 study, eligibility of the subjects opting to enroll in this extension study was confirmed. Study visits during the treatment period for all subjects occurred every 4 weeks (±3 days). A phone call was performed at Week 2 (Day 15). Unscheduled visits may have occurred, as needed. Subjects who withdrew from this study before Week 40 returned to the study center for an Early Termination visit. The total duration of this extension study participation was 44 weeks. Subjects in this study were treated as follows based on their PGA score from the Week 12 visit in the DB, pivotal Phase 3 study (Study DMVT 505 3001 or Study DMVT 505 3002).
The PGA was used to assess the primary efficacy endpoint in this study. The PGA is a clinical tool for assessing the current state/severity of a subject's psoriasis at a given time point. It is a static, 5 point, morphological assessment of overall disease severity, as determined by the Investigator, using the clinical characteristics of erythema, scaling, and plaque thickness/elevation as guidelines; higher PGA scores represent more severe disease (0=clear, 1=almost clear, 2=mild, 3=moderate, and 4=severe). The BSA affected was not considered in scoring of the PGA. Variations of the PGA are frequently used in clinical studies because it is a simple assessment, similar to those used in clinical practice. The PGA was performed first, prior to the % BSA, PASI, and LTS assessments.
Time to event parameters, such as the time from treatment success to subsequent worsening (PGA≥2) or duration of treatment episode, were summarized by the Kaplan Meier product limit method using OC.

[1] = entering with PGA = 0, Kaplan-Meier, Overall
[2] = entering with PGA = 0, Kaplan-Meier, Tapinarof (Pivotal) group
[3] = entering with PGA = 0, Kaplan-Meier, Vehicle (Pivotal) group
[4] = entering with PGA = 0, Tapinarof (Pivotal) group
[5] = entering with PGA = 0, Vehicle (Pivotal) group
[6] = entering with PGA ≥ 1, Kaplan-Meier, Vehicle (Pivotal) group
[7] = entering with PGA ≥ 1, Tapinarof (Pivotal) group
[8] = entering with PGA ≥ 1, Vehicle (Pivotal) group
[9] = final analysis, overall, baseline

CC(C)c1c(O)cc(/C=C/c2ccccc2)cc1O [Tapinarof, 3,5-Dihydroxy-4-isopropyl-trans-stilbene]
PGA 2 - Mild (Week 40 OC, Vehicle (Pivotal)): 35 (31.0) n (%)
PGA 3 - Moderate (Week 40 OC, Vehicle (Pivotal)): 15 (13.3) n (%)
PGA 4 - Severe (Week 40 OC, Vehicle (Pivotal)): 0 (0.0) n (%)
PGA Change from Baseline: Improved by 1 (Week 40 OC, Vehicle (Pivotal)): 41 (36.3) n (%)
PGA Change from Baseline: Improved by 2 (Week 40 OC, Vehicle (Pivotal)): 27 (23.9) n (%)
PGA Change from Baseline: Improved by 3 (Week 40 OC, Vehicle (Pivotal)): 17 (15.0) n (%)
PGA Change from Baseline: Improved by 4 (Week 40 OC, Vehicle (Pivotal)): 1 (0.9) n (%)
PGA Change from Baseline: No Change (Week 40 OC, Vehicle (Pivotal)): 19 (16.8) n (%)
PGA Change from Baseline: Worsened by 1 (Week 40 OC, Vehicle (Pivotal)): 7 (6.2) n (%)
PGA Change from Baseline: Worsened by 2 (Week 40 OC, Vehicle (Pivotal)): 1 (0.9) n (%)
PGA Change from Baseline: Worsened by 3 (Week 40 OC, Vehicle (Pivotal)): 0 (0.0) n (%)
PGA Change from Baseline: Worsened by 4 (Week 40 OC, Vehicle (Pivotal)): 0 (0.0) n (%)
Durability of Response, No. of Subjects (Wk. 0, Overall): 240
Durability of Response, No. of Subjects (Wk. 0, Tapinarof→Tapinarof): 18
Durability of Response, No. of Subjects (Wk. 4, Overall): 273
Durability of Response, No. of Subjects (Wk. 4, Tapinarof→Tapinarof): 216
Durability of Response, No. of Subjects (Wk. 4, Vehicle→Tapinarof): 57
Durability of Response, No. of Subjects (Wk. 8, Overall): 330
Durability of Response, No. of Subjects (Wk. 8, Tapinarof→Tapinarof): 243
Durability of Response, No. of Subjects (Wk. 8, Vehicle→Tapinarof): 87
Durability of Response, No. of Subjects (Wk. 12, Overall): 334
Durability of Response, No. of Subjects (Wk. 12, Tapinarof→Tapinarof): 233
Durability of Response, No. of Subjects (Wk. 16, Overall): 336
Durability of Response, No. of Subjects (Wk. 16, Tapinarof→Tapinarof): 239
Durability of Response, No. of Subjects (Wk. 16, Vehicle→Tapinarof): 97
Durability of Response, No. of Subjects (Wk. 20, Overall): 358
Durability of Response, No. of Subjects (Wk. 20, Tapinarof→Tapinarof): 250
Durability of Response, No. of Subjects (Wk. 24, Overall): 346
Durability of Response, No. of Subjects (Wk. 24, Tapinarof→Tapinarof): 236
Durability of Response, No. of Subjects (Wk. 28, Overall): 336
Durability of Response, No. of Subjects (Wk. 28, Tapinarof→Tapinarof): 230
Durability of Response, No. of Subjects (Wk. 32, Overall): 339
Durability of Response, No. of Subjects (Wk. 32, Tapinarof→Tapinarof): 233
Durability of Response, No. of Subjects (Wk. 36, Overall): 340
Durability of Response, No. of Subjects (Wk. 36, Tapinarof→Tapinarof): 225
Durability of Response, No. of Subjects (Wk. 40, Overall): 330
Durability of Response, No. of Subjects (Wk. 40, Tapinarof→Tapinarof): 224
Time to First Worsening (PGA ≥ 2), Median (95% CI) (entering with PGA = 0 (n=78), Kaplan-Meier, Overall, interim): 115 (85.0, 162.0) days
Time to First Worsening (PGA ≥ 2), 25th percentile (95% CI) [1]: 54 (29.0, 66.0) days
Time to First Worsening (PGA ≥ 2), 75th percentile (95% CI) [1]: 222 (169.0, 309.0) days
Time to First Worsening (PGA ≥ 2), 25th percentile (95% CI) [2]: 54 (29.0, 76.0) days
Time to First Worsening (PGA ≥ 2), 75th percentile (95% CI) [2]: 196 (168.0, 309.0) days
Time to First Worsening (PGA ≥ 2), Median (95% CI) [2]: 114 (85.0, 142.0) days
Time to First Worsening (PGA ≥ 2), 25th percentile (95% CI) [3]: 66 (42.0, NE) days
Time to First Worsening (PGA ≥ 2), Median (95% CI) [3]: 281 (42.0, NE) days
Proportion of subjects who experienced PGA ≥ 2 at least 1 time during the study (entering with PGA = 0, Overall): 59/78 (75.6) %
Proportion of subjects who never experienced PGA ≥ 2 throughout the study (entering with PGA = 0, Overall): 19/78 (24.4) %
Proportion of subjects who experienced PGA ≥ 2 at least 1 time during the study (entering with PGA = 0, Overall, listed as tapinarof): 75.6%
Proportion of subjects who experienced PGA ≥ 2 at least 1 time during the study [4]: 56/73 (76.7) %
Proportion of subjects who never experienced PGA ≥ 2 throughout the study [4]: 17/73 (23.3) %
Proportion of subjects who experienced PGA ≥ 2 at least 1 time during the study [5]: 3/5 (60.0) %
Proportion of subjects who never experienced PGA ≥ 2 throughout the study [5]: 2/5 (40.0) %
Time to First Achieving PGA = 0, 25th percentile (entering with PGA ≥ 1, Kaplan-Meier, Overall): 141 days
Time to First Achieving PGA = 0, 25th percentile (entering with PGA ≥ 1, Kaplan-Meier, Overall, listed as tapinarof): 141 days
Time to First Achieving PGA = 0, 25th percentile (entering with PGA ≥ 1, Kaplan-Meier, Tapinarof (Pivotal) group): 113 days
Time to First Achieving PGA = 0, 25th percentile (entering with PGA ≥ 1, Kaplan-Meier, Tapinarof (Pivotal) group, listed as tapinarof): 113 days
Time to First Achieving PGA = 0, 25th percentile [6]: 169 days
Time to First Achieving PGA = 0, Median [6]: 313 days
Time to First Achieving PGA = 0, 25th percentile (entering with PGA ≥ 1, Kaplan-Meier, Vehicle (Pivotal) group, listed as tapinarof): 169 days
Proportion of subjects who achieved PGA = 0 at least 1 time during the study (entering with PGA ≥ 1, Overall): 221/681 (32.5) %
Proportion of subjects who never achieved PGA = 0 throughout the study (entering with PGA ≥ 1, Overall): 460/681 (67.5) %
Proportion of subjects who achieved PGA = 0 at least 1 time during the study (entering with PGA ≥ 1, Overall, listed as tapinarof): 32.5%
Proportion of subjects who achieved PGA = 0 at least 1 time during the study [7]: 139/432 (32.2) %
Proportion of subjects who never achieved PGA = 0 throughout the study [7]: 293/432 (67.8) %
Proportion of subjects who achieved PGA = 0 at least 1 time during the study (entering with PGA ≥ 1, Tapinarof (Pivotal) group, listed as tapinarof): 32.2%
Proportion of subjects who achieved PGA = 0 at least 1 time during the study [8]: 82/249 (32.9) %
Proportion of subjects who never achieved PGA = 0 throughout the study [8]: 167/249 (67.1) %
Proportion of subjects who achieved PGA = 0 at least 1 time during the study (entering with PGA ≥ 1, Vehicle (Pivotal) group, listed as tapinarof): 32.9%
Proportion of subjects who never achieved PGA = 0 or 1 throughout the study (Overall): 222/520 (42.7) %
Proportion of subjects who achieved PGA = 0 or 1 at least 1 time during the study (Overall, interim): 298/520 (57.3) %
Proportion of subjects who achieved PGA = 0 or 1 at least 1 time during the study (Overall, interim, listed as tapinarof): 57.3%
Proportion of subjects who achieved PGA = 0 or 1 at least 1 time during the study (Tapinarof (Pivotal) group): 154/288 (53.5) %
Proportion of subjects who never achieved PGA = 0 or 1 throughout the study (Tapinarof (Pivotal) group): 134/288 (46.5) %
Proportion of subjects who achieved PGA = 0 or 1 at least 1 time during the study (Tapinarof (Pivotal) group, listed as tapinarof): 53.5%
Proportion of subjects who achieved PGA = 0 or 1 at least 1 time during the study (Vehicle (Pivotal) group): 144/232 (62.1) %
Proportion of subjects who never achieved PGA = 0 or 1 throughout the study (Vehicle (Pivotal) group): 88/232 (37.9) %
Proportion of subjects who achieved PGA = 0 or 1 at least 1 time during the study (Vehicle (Pivotal) group, listed as tapinarof): 62.1%
Patients entering with PGA≥2 who achieved PGA 0 or 1 at least once during the study (final analysis): 58.2%
Patients who achieved complete disease clearance (PGA=0) at least once during the study (final analysis, 312/763): 40.9%
participants with PGA=0 or 1 (final analysis, overall, Week 40): 44.3%
participants with PGA=0 [9]: 10.4%
participants with PGA=0 or 1 [9]: 31.6%
mean total duration of remittive effect (final analysis, patients entering with, or achieving, PGA=0 (n=312)): 130 days
